Measurements reported in patent publication US20250388623A1, “PEPTIDE INHIBITOR AND USE THEREOF” (CHENGDU BRILLIANT INSPIRATION BIOTHERAPEUTICS CO., LTD, priority 2022, published 2025).
pIC50: −log10 of the molar value. Bridge positions count the residues as written; N and C are the ends. Peptide text beside a SMILES is read from it.

Columns and labels:
[1] = system: mouse lung fibrosis model induced by bleomycin (BLM); assay: Hydroxyproline (HYP) content / collagen deposition in lung, BLM mouse fibrosis model; format: in vivo; conditions: 3 mg/kg intratracheal twice weekly x4 from Day 8, Day 21, BLM model group = 100.00
Description: This Example was to evaluate the inhibitory effect of polypeptides on collagen deposition in fibrotic tissues. In this example, 6- to 8-week-old male C57/6J mice weighing 18-20 g were used as subjects for the study. The experimental animals were randomized into groups, eight animals in each group. On the day of modeling (Day 1), a 0.7 USP/kg dose of bleomycin solution was administered via the tracheal route to induce the model. Treatment dosing started on Day 8. Each peptide-treated group received the peptide drug intratracheally at a dosage of 3 mg/kg, administered twice weekly for a total of four doses. The BLM model group received an equal volume of solvent (saline) as a control. The administration procedure followed that described in Example 4. Day 21 was set as the experimental endpoint for assessing the degree of fibrosis in the model.
On Day21, the animals were dissected to collect lung tissues, and after grinding the lung tissues in liquid nitrogen, hydroxyproline (HYP) was extracted from the tissue using acid hydrolysis. HYP is a unique amino acid found in collagen, and the determination of HYP content is an important indicator reflecting the metabolism of collagen tissue and the degree of fibrosis. 1 mL of 6N HCl was added per 100 mg of tissue and thoroughly mixed, followed by hydrolysis at 121° C. for 6 hours. The hydrolysate was centrifuged, and the resulting supernatant, along with a gradient of HYP standard solutions (Sigma, Catalog No. V900395-25G) at different concentrations, was used for HYP content determination. To each well of a 96-well plate, 10 μL of the hydrolysate supernatant was added and dried in an oven at 65° C. 100 μL per well of 1.4% chloramine T oxidizing solution (Sigma, Catalog No. 23270-50G) was added, and incubated at room temperature for 15 minutes. 100 μL per well of Ehrlich's color development solution (Solarbio, Catalog No. G1290) was added and incubated at 65° C. for 30 minutes. The absorbance of each sample well was measured at 560 nm (OD560) using a multifunctional microplate reader (TECAN, model Infinite 200 Pro). The total HYP content in the lung tissue from each experimental group was calculated to determine the reduction percentage of HYP content in the peptide-treated group relative to the model group, and the inhibitory effect of the peptide molecule on collagen deposition at the fibrotic site was assessed.

[2] = target: T1, binding of TSP-1 protein to CD36, a TSP-1 receptor protein (Homo sapiens, UniProt P07996); assay: ELISA: blocking of CD36 binding to TSP-1 protein; conditions: for inhibition at 100 µM: 3 h, 100 μM polypeptide, 0.25 μg/mL Fc-tagged CD36, blocking of CD36 binding to TSP-1, read-out: Blocking rate (Mean, %); for pIC50: concentrations 0-100 μM
T1 construct: purchased novoprotein (TSP-1); R&D Systems (Fc-tagged CD36) CU45 (TSP-1); 1955-CD-050 (CD36-Fc)
Summary of the method: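 Plate-bound TSP-1 (2 μg/mL coat) incubated 3 h at 37 °C with Fc-tagged CD36 (0.25 μg/mL final) ± polypeptide (100 μM final single-point; 0.5–100 μM for IC50); bound CD36 detected with FITC anti-Fc antibody fluorescence. Blocking rate = (control − treated)/control × 100%; IC50 from concentration dependence.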

T1 sequence (P07996 19-1170): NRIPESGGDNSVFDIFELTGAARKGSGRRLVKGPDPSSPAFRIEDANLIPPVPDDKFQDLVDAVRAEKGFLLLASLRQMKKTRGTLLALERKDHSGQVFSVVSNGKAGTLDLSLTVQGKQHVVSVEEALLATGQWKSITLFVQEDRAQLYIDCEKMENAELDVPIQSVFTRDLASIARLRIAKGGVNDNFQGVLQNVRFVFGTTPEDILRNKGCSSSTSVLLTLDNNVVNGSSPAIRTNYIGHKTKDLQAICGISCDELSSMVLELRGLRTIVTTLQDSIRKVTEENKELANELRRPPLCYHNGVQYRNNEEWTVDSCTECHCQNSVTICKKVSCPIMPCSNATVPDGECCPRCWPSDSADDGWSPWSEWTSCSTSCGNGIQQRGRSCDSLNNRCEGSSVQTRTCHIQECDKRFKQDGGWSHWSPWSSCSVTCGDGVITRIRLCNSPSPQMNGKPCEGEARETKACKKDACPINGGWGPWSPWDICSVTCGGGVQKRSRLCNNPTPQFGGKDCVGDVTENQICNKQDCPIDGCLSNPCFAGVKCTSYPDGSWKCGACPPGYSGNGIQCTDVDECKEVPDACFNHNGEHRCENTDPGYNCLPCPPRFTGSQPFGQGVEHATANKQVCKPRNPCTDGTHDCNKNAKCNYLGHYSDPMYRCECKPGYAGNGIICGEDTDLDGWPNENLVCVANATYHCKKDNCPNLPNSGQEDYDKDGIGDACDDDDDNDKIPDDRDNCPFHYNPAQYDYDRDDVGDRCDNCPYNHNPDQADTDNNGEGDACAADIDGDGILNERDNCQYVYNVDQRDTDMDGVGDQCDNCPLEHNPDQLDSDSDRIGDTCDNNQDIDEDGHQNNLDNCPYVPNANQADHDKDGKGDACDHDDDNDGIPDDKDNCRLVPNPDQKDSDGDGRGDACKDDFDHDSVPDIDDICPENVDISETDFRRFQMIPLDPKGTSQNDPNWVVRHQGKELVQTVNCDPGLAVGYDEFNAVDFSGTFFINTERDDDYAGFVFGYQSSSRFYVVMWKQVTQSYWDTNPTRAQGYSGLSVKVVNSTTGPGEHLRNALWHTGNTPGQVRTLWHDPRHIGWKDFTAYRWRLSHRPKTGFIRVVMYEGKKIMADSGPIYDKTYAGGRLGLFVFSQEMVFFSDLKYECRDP

Compound	HYP content in lung tissue relative to model group, Mean (%) [1]	inhibition at 100 µM [2]	pIC50 [2]
Ac-TQDAEDNTASH-NH2 [SEQ ID NO: 33, Ac-Thr-Gln-Asp-Ala-Glu-Asp-Asn-Thr-Ala-Ser-His-NH2]	82.23%	21.4%	
C[C@@H]1NC(=O)[C@H](CC(=O)O)NC(=O)[C@H](CCC(N)=O)NC(=O)[C@H]([C@@H](C)O)NC(=O)[C@H](CC(N)=O)NC(=O)[C@H](CC(=O)O)NC(=O)[C@H](CCC(=O)O)NC1=O [SEQ ID NO: 40, cyclo[Thr-Gln-Asp-Ala-Glu-Asp-Asn]] (cyclo(AEDNTQD))	77.88%	37.5%	
Ac-TQDAEDN-NH2 [SEQ ID NO: 06, Ac-Thr-Gln-Asp-Ala-Glu-Asp-Asn-NH2]	79.51%	17.7%	
CC(=O)N[C@H](C(=O)N[C@H]1CSSC[C@@H](C(=O)O)NC(=O)[C@H](CC(N)=O)NC(=O)[C@H](CC(=O)O)NC(=O)[C@H](CCC(=O)O)NC(=O)[C@H](C)NC(=O)[C@H](CC(=O)O)NC1=O)[C@@H](C)O [SEQ ID NO: 43, Ac-Thr-cyclo[Cys-Asp-Ala-Glu-Asp-Asn-Cys]] (Ac-TCDAEDNC-OH; disulfide 2-8)	72.18%	52%	5.44
Ac-TQDAEDPTA-NH2 [SEQ ID NO: 22, Ac-Thr-Gln-Asp-Ala-Glu-Asp-Pro-Thr-Ala-NH2]	72.66%	40.9%	
Ac-TQDAEDPTAS-NH2 [SEQ ID NO: 25, Ac-Thr-Gln-Asp-Ala-Glu-Asp-Pro-Thr-Ala-Ser-NH2]	77.75%	33%	
C[C@@H]1NC(=O)[C@H]([C@@H](C)O)NC(=O)[C@H](CC(N)=O)NC(=O)[C@H](CC(=O)O)NC(=O)[C@H](CCC(=O)O)NC(=O)[C@@H]2CCCN2C(=O)[C@H](CC(=O)O)NC(=O)[C@H](CCC(N)=O)NC(=O)[C@H]([C@@H](C)O)NC(=O)[C@H](CO)NC1=O [SEQ ID NO: 46, cyclo[Thr-Gln-Asp-Pro-Glu-Asp-Asn-Thr-Ala-Ser]] (cyclo(ASTQDPEDNT))	80.16%	56.1%	
Ac-TQDPEDNTAS-NH2 [SEQ ID NO: 26, Ac-Thr-Gln-Asp-Pro-Glu-Asp-Asn-Thr-Ala-Ser-NH2]	72.07%	53.8%	
CC(=O)N[C@H](C(=O)N[C@H]1CSSC[C@@H](C(N)=O)NC(=O)[C@H](CC(N)=O)NC(=O)[C@H](CC(=O)O)NC(=O)[C@H](CCC(=O)O)NC(=O)[C@H](C)NC(=O)[C@H](CC(=O)O)NC1=O)[C@@H](C)O [SEQ ID NO: 44, Ac-Thr-cyclo[Cys-Asp-Ala-Glu-Asp-Asn-Cys]-NH2] (Ac-TCDAEDNC-NH2; disulfide 2-8)	78.25%	52.9%	5.17
